{
  "source": "paper PMC7782793",
  "about": "“Hydroxamic acid-modified peptide microarrays for profiling isozyme-selective interactions and inhibition of histone deacetylases” (Nature Communications, 2021)",
  "format_in_all_cases": "biochemical",
  "key": {"HDAC3/NCoR2": {"target": "T1, HDAC3/NCoR2 (Homo sapiens, UniProt O15379)", "T1 construct": "HDAC3/NCoR2 (full length, C-terminal His tag, NCoR2 N-terminal GST tag); purchased BPS Bioscience 50003", "T1 sequence (O15379 whole entry)": "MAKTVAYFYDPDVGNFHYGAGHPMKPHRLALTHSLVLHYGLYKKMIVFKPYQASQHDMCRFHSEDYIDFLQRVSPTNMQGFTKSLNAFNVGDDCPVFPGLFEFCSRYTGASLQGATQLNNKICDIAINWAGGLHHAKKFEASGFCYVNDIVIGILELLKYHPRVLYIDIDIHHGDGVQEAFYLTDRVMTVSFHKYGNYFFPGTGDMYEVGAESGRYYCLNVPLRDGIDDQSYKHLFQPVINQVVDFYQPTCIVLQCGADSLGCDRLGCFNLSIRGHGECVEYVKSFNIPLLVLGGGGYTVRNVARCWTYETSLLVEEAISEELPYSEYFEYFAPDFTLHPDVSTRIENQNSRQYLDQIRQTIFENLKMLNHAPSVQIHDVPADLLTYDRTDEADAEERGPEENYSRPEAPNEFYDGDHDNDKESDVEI", "T1 sequence (Q9Y618 389-480 partner limits assumed)": "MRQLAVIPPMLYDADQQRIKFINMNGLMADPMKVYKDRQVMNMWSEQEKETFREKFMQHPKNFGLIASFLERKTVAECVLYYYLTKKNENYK", "assay": "HDAC inhibition assay (fluorogenic, Ac-Leu-Gly-Lys(Ac)-AMC)", "settings": "for HDAC3 dose-response data (relative enzyme activity), Fig. 6 + S. Fig. 10: duplicate columns"}, "HDAC8": {"target": "T2, HDAC8 (Homo sapiens, UniProt Q9BY41)", "T2 construct": "HDAC8 (full length, C-terminal His tag, BPS Bioscience, cat. #: 50008); purchased BPS Bioscience 50008", "T2 sequence (Q9BY41 1-377)": "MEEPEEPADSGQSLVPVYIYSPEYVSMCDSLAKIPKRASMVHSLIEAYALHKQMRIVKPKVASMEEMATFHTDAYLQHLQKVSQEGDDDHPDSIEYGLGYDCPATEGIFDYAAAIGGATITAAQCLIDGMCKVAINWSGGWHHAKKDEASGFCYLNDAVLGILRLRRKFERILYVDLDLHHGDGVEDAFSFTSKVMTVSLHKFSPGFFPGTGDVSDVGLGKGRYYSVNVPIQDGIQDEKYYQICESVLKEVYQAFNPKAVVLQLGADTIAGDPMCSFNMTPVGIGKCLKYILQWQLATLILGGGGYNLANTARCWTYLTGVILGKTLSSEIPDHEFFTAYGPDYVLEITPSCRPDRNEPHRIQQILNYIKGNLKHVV", "assay": "HDAC inhibition assay (fluorogenic, Ac-Leu-Gly-Lys(Tfa)-AMC)", "settings": "for HDAC8 dose-response data (relative enzyme activity, replicate values), Fig. 6 + S. Fig. 10: two replicate columns per inhibitor; for HDAC8 dose-response data (relative enzyme activity), Fig. 6 + S. Fig. 10: duplicate columns"}, "HDAC6": {"target": "T3, HDAC6 (Homo sapiens, UniProt Q9UBN7)", "T3 construct": "HDAC6 (full length, BPS Bioscience, cat. #: 50056); purchased BPS Bioscience 50056", "T3 sequence (Q9UBN7 1-1215)": "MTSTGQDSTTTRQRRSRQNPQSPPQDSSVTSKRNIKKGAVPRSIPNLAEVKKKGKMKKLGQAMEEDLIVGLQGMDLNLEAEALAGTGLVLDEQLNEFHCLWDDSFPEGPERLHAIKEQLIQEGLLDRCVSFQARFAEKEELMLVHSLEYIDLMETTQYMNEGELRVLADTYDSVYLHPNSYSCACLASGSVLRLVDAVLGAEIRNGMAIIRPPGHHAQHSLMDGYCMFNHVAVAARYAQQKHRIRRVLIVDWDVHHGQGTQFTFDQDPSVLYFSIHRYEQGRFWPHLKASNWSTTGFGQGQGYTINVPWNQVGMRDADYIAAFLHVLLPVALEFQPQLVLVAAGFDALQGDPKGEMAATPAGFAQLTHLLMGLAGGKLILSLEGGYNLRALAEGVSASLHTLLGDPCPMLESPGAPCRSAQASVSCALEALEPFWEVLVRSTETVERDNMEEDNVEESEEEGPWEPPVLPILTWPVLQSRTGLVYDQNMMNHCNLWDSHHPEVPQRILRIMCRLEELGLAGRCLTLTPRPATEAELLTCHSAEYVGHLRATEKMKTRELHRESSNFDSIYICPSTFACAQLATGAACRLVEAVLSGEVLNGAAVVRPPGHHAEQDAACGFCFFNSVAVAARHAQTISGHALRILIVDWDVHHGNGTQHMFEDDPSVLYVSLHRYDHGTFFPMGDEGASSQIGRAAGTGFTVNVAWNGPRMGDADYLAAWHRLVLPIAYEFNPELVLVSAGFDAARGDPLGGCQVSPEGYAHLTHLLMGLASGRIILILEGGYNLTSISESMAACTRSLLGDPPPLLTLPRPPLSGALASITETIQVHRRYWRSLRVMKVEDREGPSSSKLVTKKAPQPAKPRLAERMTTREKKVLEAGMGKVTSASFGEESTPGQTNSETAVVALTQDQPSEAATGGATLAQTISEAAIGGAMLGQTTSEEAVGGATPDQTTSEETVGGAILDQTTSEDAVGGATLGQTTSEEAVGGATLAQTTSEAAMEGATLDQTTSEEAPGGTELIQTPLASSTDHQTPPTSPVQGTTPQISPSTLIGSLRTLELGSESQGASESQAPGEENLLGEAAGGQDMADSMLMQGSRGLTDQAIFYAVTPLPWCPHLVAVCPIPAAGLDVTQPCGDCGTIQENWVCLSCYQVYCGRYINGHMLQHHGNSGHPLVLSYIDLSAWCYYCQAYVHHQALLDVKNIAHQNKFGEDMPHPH", "assay": "HDAC inhibition assay (fluorogenic, Ac-Leu-Gly-Lys(Ac)-AMC)", "settings": "HDAC6, replicates"}, "[1]": {"settings": "resynthesized peptides, from Ki"}},
  "note": "Where “and” joins values, the source holds several entries; their conditions need not be identical. Identical values can stand only once. Marks after values point to notes of the source that are not given here. Non-standard residues stand in square brackets, D forms with d. Residues, ends and D or L forms follow the SMILES beside them. *: point of attachment. Asu = N[C@@H](CCCCCC(=O)O)C(=O)O; NHOH = ON*",
  "data": [
    {"smiles": "CC[C@H](C)[C@H](NC(=O)[C@@H](NC(=O)[C@H](CO)NC(=O)[C@H](CCCNC(=N)N)NC(=O)[C@H](CCCCCC(=O)NO)NC(=O)[C@H](CC(N)=O)NC(=O)[C@H](Cc1ccc(O)cc1)NC(=O)[C@H](Cc1c[nH]cn1)NC(=O)[C@H](C)NC(=O)[C@H](CC(C)C)NC(=O)[C@H](CCCNC(=N)N)NC(=O)[C@H](CO)NC(=O)[C@H](C)NC(=O)[C@H](CCC(=O)O)NC(C)=O)[C@@H](C)O)C(=O)N[C@H](C(=O)N[C@@H](CO)C(=O)N[C@@H](Cc1c[nH]c2ccccc12)C(N)=O)[C@@H](C)O", "note": "[11a] (Ac-EASRLAHYN[Asu](NHOH)RSTITSW-NH2)", "values": [
      {"measurement": "HDAC3 dose-response data (relative enzyme activity), Fig. 6 + S. Fig. 10", "setting": "HDAC3/NCoR2; log[inhibitor(M)] -9.19382", "value": "91.8976 and 96.1605"},
      {"measurement": "HDAC3 dose-response data (relative enzyme activity), Fig. 6 + S. Fig. 10", "setting": "HDAC3/NCoR2; log[inhibitor(M)] -9.89279", "value": "95.3177 and 97.0902"},
      {"measurement": "HDAC3 dose-response data (relative enzyme activity), Fig. 6 + S. Fig. 10", "setting": "HDAC3/NCoR2; log[inhibitor(M)] -10,5850266520292*, whole line marked with asterisks", "value": "96,0565351* and 98,690933*"},
      {"measurement": "selectivity for HDAC3 vs. HDAC8", "setting": "HDAC3/NCoR2; [1]", "value": "63 fold and > 60 fold"},
      {"measurement": "selectivity for HDAC3 vs. HDACs 1 and 2", "setting": "HDAC3/NCoR2; [1]", "value": "4 fold and ~ 4 fold"},
      {"measurement": "Ki", "setting": "HDAC8", "value": "0.216 ± 0.001", "unit": "µM"},
      {"measurement": "HDAC8 dose-response data (relative enzyme activity, replicate values), Fig. 6 + S. Fig. 10", "setting": "HDAC8; Inhibitor conc [M] -8.49485 (log)", "value": "96.1111 and 96.5276"},
      {"measurement": "HDAC8 dose-response data (relative enzyme activity, replicate values), Fig. 6 + S. Fig. 10", "setting": "HDAC8; Inhibitor conc [M] -9.19382 (log)", "value": "96.7641 and 98.5453"},
      {"measurement": "HDAC8 dose-response data (relative enzyme activity, replicate values), Fig. 6 + S. Fig. 10", "setting": "HDAC8; Inhibitor conc [M] given as -7.09691 (log)", "value": "74.7826 and 76.7416"},
      {"measurement": "HDAC8 dose-response data (relative enzyme activity, replicate values), Fig. 6 + S. Fig. 10", "setting": "HDAC8; Inhibitor conc [M] given as -7.79588 (log)", "value": "92.4501 and 93.9678"},
      {"measurement": "HDAC8 dose-response data (relative enzyme activity, replicate values), Fig. 6 + S. Fig. 10", "setting": "HDAC8; Inhibitor conc [M] given as -9.89279 (log)", "value": "96.0276 and 96.961"},
      {"measurement": "HDAC8 dose-response data (relative enzyme activity, replicate values), Fig. 6 + S. Fig. 10", "setting": "HDAC8; Inhibitor conc [M] given as -10.585 (log)", "value": "97,4443859* and 98,1506198*"},
      {"measurement": "HDAC8 dose-response data (relative enzyme activity), Fig. 6 + S. Fig. 10", "setting": "HDAC8; Inhibitor conc [M] -4.30103", "value": "1.735 and 1.62"},
      {"measurement": "HDAC8 dose-response data (relative enzyme activity), Fig. 6 + S. Fig. 10", "setting": "HDAC8; Inhibitor conc [M] -5", "value": "6.862 and 6.863"},
      {"measurement": "HDAC8 dose-response data (relative enzyme activity), Fig. 6 + S. Fig. 10", "setting": "HDAC8; Inhibitor conc [M] -5.69897", "value": "19.3274 and 19.565"},
      {"measurement": "HDAC8 dose-response data (relative enzyme activity), Fig. 6 + S. Fig. 10", "setting": "HDAC8; Inhibitor conc [M] -6.39794", "value": "44.2904 and 45.2063"},
      {"measurement": "residual enzymatic activity relative to control wells", "setting": "HDAC6; log[inhibitor(M)] -4.30103", "value": "2.583 and 1.686"},
      {"measurement": "residual enzymatic activity relative to control wells", "setting": "HDAC6; log[inhibitor(M)] -5", "value": "3.305 and 1.741"},
      {"measurement": "residual enzymatic activity relative to control wells", "setting": "HDAC6; log[inhibitor(M)] -5.69897", "value": "5.202 and 4.016"},
      {"measurement": "residual enzymatic activity relative to control wells", "setting": "HDAC6; log[inhibitor(M)] -6.39794", "value": "10.5662 and 11.8653"},
      {"measurement": "residual enzymatic activity relative to control wells", "setting": "HDAC6; log[inhibitor(M)] -7.09691", "value": "30.8137 and 34.4652"},
      {"measurement": "residual enzymatic activity relative to control wells", "setting": "HDAC6; log[inhibitor(M)] -7.79588", "value": "67.8407 and 69.7758"},
      {"measurement": "residual enzymatic activity relative to control wells", "setting": "HDAC6; log[inhibitor(M)] -8.49485", "value": "85.433 and 85.1351"},
      {"measurement": "residual enzymatic activity relative to control wells", "setting": "HDAC6; log[inhibitor(M)] -9.19382", "value": "83.1934 and 87.9013"},
      {"measurement": "residual enzymatic activity relative to control wells", "setting": "HDAC6; log[inhibitor(M)] -9.89279", "value": "78.0457 and 86.7533"},
      {"measurement": "residual enzymatic activity relative to control wells", "setting": "HDAC6; log[inhibitor(M)] -10.585", "value": "79.87 and 88.4822"}
    ]}
  ]
}
